64 compounds from PubChem BioAssay AID1645848 can be followed below.

Each structure is given as a SMILES string. In brackets after ≈: the same amount, converted by molar mass.

For this series the following is noted: buffer; pH 7.4; 6.0 h; 150.0 µM.

The term kinetic solubility denotes solubility judged after dilution from a stock solution rather than from solid. As for `COc1ccc(-n2nc(C3CCCN(C(=O)C4CC4)C3)[nH]c2=O)cc1` (centres undefined), the kinetic solubility was greater than 51 µg/mL.
The figure for `CCOC(=O)C1CCN(C(=O)C2(NC(=O)Nc3ccc(F)cc3F)CCCCC2)CC1` is 41.8 µg/mL (≈ 95.6 µM); for `Cc1cccc2nc(-c3cccnc3)c(Nc3ccc(C(C)C)cc3)n12` it is less than 1 µg/mL.
Compound `Cc1nn(Cc2ccccc2Cl)c(C)c1CN(C)CC(O)COc1ccc(Cl)cc1` (centres undefined) gave a kinetic solubility of 55.6 µg/mL (≈ 124 µM).
As for `COc1ccc(C(=O)c2sc(Nc3cccc(Cl)c3)nc2N)cc1`, the solubility (kinetic) is less than 1 µg/mL.
In the case of `COc1ccc(CCNc2ncnc3c2c(-c2ccccc2)cn3-c2cccc(Cl)c2)cc1OC` it was less than 1 µg/mL.
`Cl.c1ccc(Nc2nc(NCc3ccco3)c3ccccc3n2)cc1` had a kinetic solubility of less than 1 µg/mL.
The figure for `Clc1ccccc1Nc1nc(-c2ccncc2)nc2ccccc12` is less than 1 µg/mL; for `COc1cccc(-c2csc(N3CCC(C(N)=O)CC3)n2)c1` it is greater than 47 µg/mL; for `COc1ccc(Cn2c(CCC(=O)Nc3cc(C)cc(C)c3)nc3cccnc32)cc1` it is less than 1 µg/mL.
`COc1ccccc1-n1cnc2cc(C(=O)N3CCCCC3)ccc21` yielded a kinetic solubility greater than 50 µg/mL.
The figure for `NC(=O)N1CCCC(C(=O)N2CCCN(c3ccc(F)cc3)CC2)C1` (centres undefined) is greater than 51 µg/mL.
The figure for `COc1ccccc1C(=O)Nc1nnc(SCc2cc(=O)c3ccccc3[nH]2)s1` is less than 1 µg/mL; for `CCN1CCN(C(=O)CCCn2nc(C)c3c(C)n(-c4ccc(C)cc4)nc3c2=O)CC1` it is greater than 43 µg/mL.
`COc1ccc(C(=O)Nc2nc(-c3ccccc3)cs2)c(NS(=O)(=O)c2ccc(C)cc2)c1` showed a solubility (kinetic) of less than 1 µg/mL.
As for `Cn1c(=O)c2[nH]c(=O)[nH]c2n(C)c1=O`, the kinetic solubility was greater than 29 µg/mL.
In the case of `CCOc1ccc(N2CC(c3nc(-c4ccccn4)no3)CC2=O)cc1` (centres undefined), the solubility (kinetic) is greater than 35 µg/mL.
The figure for `O=S(=O)(Nc1ccc2ccccc2c1)c1ccc(NCc2cccc(Cl)c2O)cc1` is less than 1 µg/mL; for `Cc1ccc(S(=O)(=O)Nc2cnccc2C(=O)Nc2nc(-c3cccc(C)c3)cs2)cc1` it is 15.4 µg/mL (≈ 33.1 µM); for `COc1ccccc1CN1CCNc2cc(Nc3ccccc3)ncc2C1` it is greater than 80 µg/mL.
`O=C(Cc1ccc(Cl)c(Cl)c1)Nc1ccc(S(=O)(=O)Nc2ccon2)cc1` gave a solubility (kinetic) greater than 100 µg/mL.
The figure for `COCCCOc1ccnc(CS(=O)c2nc3ccccc3[n-]2)c1C` (centres undefined) is 19.2 µg/mL.
In the case of `Cc1ccc(C(=O)Nc2cccc(C(F)(F)F)c2)cc1Nc1nc(-c2cccnc2)nc2c1cnn2C` it was less than 1 µg/mL; in that of `CN1CCN(c2ccc(-c3cccc(CN4CCOCC4)c3)cc2NC(=O)c2c[nH]c(=O)cc2C(F)(F)F)CC1`, 69.1 µg/mL (≈ 124 µM).
The figure for `CC(C)c1ccc(-n2ncc3c(=O)n(CC(=O)Nc4cc(F)ccc4Cl)cnc32)cc1` is less than 1 µg/mL.
Turning to `COc1cccc(CNc2ccc(S(=O)(=O)Nc3cccc4ccncc34)cc2)c1O`, the solubility (kinetic) was less than 1 µg/mL.
In the case of `O=C(Nc1ccc(S(=O)(=O)Nc2nccs2)cc1)c1cccc2ccccc12` it was 1.39 µg/mL (≈ 3.39 µM).
In the case of `c1ccc2c(Nc3ccn[nH]3)nc(-c3ccncc3)nc2c1` it was less than 1 µg/mL; in that of `O=C(NCc1ccc(N2CCCC2)nc1)c1cc(Cl)ccc1O`, 1.3 µg/mL (≈ 3.93 µM); in that of `CCn1c(-c2nonc2N)nc2cnc(Oc3cccc(NC(=O)c4ccc(OCCN5CCOCC5)cc4)c3)cc21`, less than 1 µg/mL.
The figure for `O=C(O)CCNc1cc(N2CCc3ccccc3CC2)nc(-c2cccnc2)n1` is greater than 58 µg/mL.
Compound `c1cc(-c2cc(-c3ccncc3)c3cncn3c2)c2[nH]ccc2c1` returned a kinetic solubility of less than 1 µg/mL.
In the case of `O=C(NC(c1ccccc1)c1cc(Cl)c2cccnc2c1O)c1cccnc1` (centres undefined) it was less than 1 µg/mL.
Compound `Cc1ccc(N(C)S(=O)(=O)c2ccc(-c3cnc(C4CC4)o3)cc2)cc1` registered a kinetic solubility of less than 1 µg/mL.
In the case of `COc1ccc(NC(=O)c2c(C)c(C(C)=O)c(C)n2C)cc1S(=O)(=O)Nc1ccc(Br)cc1` it was less than 1 µg/mL; in that of `O=C1Cc2cc(C(=O)c3ccco3)ccc2N1`, greater than 34 µg/mL.
In turn, `OCc1ccc(-c2nn(Cc3ccccc3)c3ccccc23)o1` came in with a solubility (kinetic) of 2.72 µg/mL (≈ 8.94 µM).
In the case of `CCN(CC)C(=O)N1c2ccccc2C=Cc2ccccc21` it was 15.9 µg/mL (≈ 54.5 µM).
In the case of `COc1ccc(NC(=O)c2ccc[nH]2)cc1S(=O)(=O)Nc1ccc(Br)cc1` it was less than 1 µg/mL; in that of `Cc1ccc(NS(=O)(=O)c2ccc3c(c2)NC(=O)CO3)cc1C`, 7.82 µg/mL (≈ 23.5 µM); in that of `Cc1onc(-c2ccc(F)cc2)c1COc1ccc(C(=O)N2CCS(=O)(=O)CC2)cn1`, greater than 66 µg/mL.
In the case of `O=C(Cn1c2ncccc2c(=O)n1-c1ccccc1)Nc1ccc(Cl)cc1C(F)(F)F` it was less than 1 µg/mL; in that of `Cc1cnc(-c2ccccc2C2CC2)nc1NCc1ccc(-c2cccnc2)cc1`, less than 1 µg/mL; in that of `O=C(c1nc(-c2cccnc2)c2ccccn12)N1CCOCC1`, 45.2 µg/mL (≈ 147 µM).
`COc1ccc(CNC(=O)Cn2nc3c(cc2=O)CCCC3)cc1` came in with a solubility (kinetic) greater than 48 µg/mL.
In the case of `Cc1cc(C)nc(N2CCCC(C(=O)NCCc3ccc(F)cc3)C2)n1` (centres undefined) it was 2.77 µg/mL (≈ 7.77 µM).
In turn, `COCCNCc1ccc(-c2cc3nccc(Oc4ccc(NC(=O)C5(C(=O)Nc6ccc(F)cc6)CC5)cc4F)c3s2)nc1` showed a kinetic solubility of less than 1 µg/mL.
Consider `O=[S+]([O-])(Nc1nccs1)c1ccc(NCc2cccc3c2NCC3)cc1`, for which the kinetic solubility was greater than 57 µg/mL.
The figure for `COc1ccc(NC(=O)c2c(C)cccc2C)cc1[S+](=O)([O-])N1CCCCC1` is 38.8 µg/mL (≈ 96.3 µM); for `C=Cc1ccc(Cn2c(C(=O)O)c(CNC3CCCCC3)c3ccc(OC)cc32)cc1` it is less than 1 µg/mL; for `Cc1noc(C)c1-c1ccc2ncnc(NC(C)c3ccccc3)c2c1` (centres undefined) it is 12.6 µg/mL (≈ 36.7 µM).
The figure for `FC(F)(F)c1ccc(CN2CCNc3cc(Nc4ccccc4)ncc3C2)cc1` is less than 1 µg/mL; for `CCCCCCOc1ccc(OC(=O)c2ccncc2)cc1` it is less than 1 µg/mL; for `COc1ccnc(NC(=S)N2CCN(c3cc(C(F)(F)F)cc(C(F)(F)F)c3)CC2)c1` it is 2.88 µg/mL (≈ 6.21 µM).
The figure for `O=[S+]([O-])(Nc1ccc(C2CCNCC2)cc1)c1ccc(NCc2ccc(Br)cc2O)cc1` is 12.8 µg/mL (≈ 24.8 µM); for `C[C@]1(CO)CN(c2cc(C(=O)Nc3ccc4c(c3)-c3c(c(C(N)=O)nn3-c3ccc(F)cc3)CC4)c(Cl)cn2)C[C@@]1(C)CO` it is 18.5 µg/mL (≈ 29.8 µM); for `Cc1[nH]c2ccccc2c1CN1CCN(c2ccccn2)CC1` it is 34.4 µg/mL (≈ 112 µM).
In turn, `O=C1CCCC2=C1C(c1ccncc1Cl)N=C(Nc1nc3ccccc3o1)N2` (centres undefined) gave a solubility (kinetic) of 8.82 µg/mL (≈ 22.4 µM).
The figure for `COc1cccc(CNc2ccc(S(=O)(=O)Nc3ccc(C)nc3)cc2)c1O` is 16.5 µg/mL (≈ 41.2 µM).
`CCCCN(C)C(=O)c1c(C)sc2ccn(CCC)c(=O)c12` returned a kinetic solubility greater than 32 µg/mL.
As to `NC(=O)C1CCN(c2ncc(-c3ccc(Cl)cc3)s2)CC1`, the solubility (kinetic) is less than 1 µg/mL.
In the case of `Cc1ccc(-n2c(C)cc(-c3nnc4n3CCCCC4)c2C)cc1` it was 27.8 µg/mL (≈ 86.6 µM); in that of `Cc1nn2c(c1-c1ccccc1-c1ccccc1)N(Cc1ccccc1)CCC2`, 4.07 µg/mL (≈ 10.7 µM); in that of `O=C(NC1CCCCC1)N1Cc2[nH]cnc2C[C@H]1c1nc(-c2cccc([N+](=O)[O-])c2)no1`, 14.2 µg/mL (≈ 32.5 µM).
